From paper PMC6522524 (Nature Communications, 2019)
Where “and” joins values, the source holds several entries; their conditions need not be identical. Identical values can stand only once. Counter-ions that a name gives are not always drawn. Like-named read-outs stand apart in the source and are kept apart here.

Key:
[1] = system: HBV (ayw subtype, genotype D) replicon in HepG2.2.15 cells; assay: microbe, parasite or virus in culture; assay type: cell-based, Hepatitis B virus; conditions: for inhibition at 1 µM: Hepatitis B virus
[2] = ref https://www.drugbank.ca/; cited from earlier work
[3] = system: HBV pgRNA/precore RNA in HepG2.2.15 cells; assay type: cell-based, Hepatitis B virus
Method: Fig. 1 Effect of FDA-approved compounds on HBV replication. a Schematic depiction of the primary screening analysis. HepG2.2.15 cells, which were stably transfected with HBV replicons, were treated with 978 FDA-approved drugs (1 μM) for 3 days. Entecavir (ETV) (1 μM) served as positive control. […] Quantitative RT-PCR was performed after 6 days of incubation. d Effect of the 19 candidates on intracellular HBV capsid assembly. Huh-7 cells were transfected with pCDNA3-Core and exposed after 12 h to the 19 candidates (1 μM) for 36 h. The cells were lysed and assembled HBV core particles were isolated by sucrose step gradient ultracentrifugation, resolved on 1% agarose gels, and subjected to immunoblot analysis with anti-HBV core antibody.
Quantitative RT-PCR with primers that detect three HBV regions (R1, R2, and R3, Supplementary Table 1) was used to measure HBV transcription. This RT-PCR detects pgRNA and precore RNA (3.5 kB), two HBV surface-encoding RNAs (2.5 kB and 2.1 kB), and HBx-encoding RNA (0.7 kB)[55]. PCR conditions were 95 °C for 10 min initially, then 50 cycles of 95 °C for 30 s, 60 °C for 60 s and 72 °C for 30 s, and finally 1 cycle of 95 °C for 60 s, 55 °C for 30 s and 95 °C for 30 s.
a Schematic depiction of the R1, R2, and R3 regions of the HBV genome that were targeted by
quantitative RT-PCR to quantitate the transcription of pgRNA, two HBV surface RNAs, and HBx RNA.
pGL3/HBV pgRNA promoter or pGL3/HBV sRNA promoter. The data shown in (b – d) represent two

[4] = molecular target: T1, Cp149 (truncated HBV core protein) (Hepatitis B virus genotype D subtype ayw, UniProt P03146); assay: biochemical
T1 construct: Cp149 (amino acids 1–149) is a truncated form of the HBV core protein; made in house; host or cells: Escherichia coli

[5] = system: total HBV core protein in Huh-7 cells; assay type: cell-based, Hepatitis B virus; conditions: for Relative Core mRNA level(Folds), individual samples: Sample1-3
Method: the indicated times. The cells were lysed and assembled HBV core particles were isolated by sucrose step-gradient ultracentrifugation, resolved on 1 % agarose gels, and subjected to immunoblot analysis with anti-HBV core antibody. Total intracellular HBV core protein was also determined by immunoblot analysis in the cell lysates. Core mRNA levels were measured by quantitative RT-PCR. The data

[6] = HepG2.2.15, 72 h, 1 μM, 3 days, ETV =100%, read-out: % of inhibition (ETV =100%), initial screening (3days)
[7] = HepG2.2.15, 144 h, 6 days, ETV =100%, read-out: % of inhibition (ETV =100%), confirmation (6days)
[8] = HepG2.2.15, 72 h, read-out: % of inhibition (ETV =100%), initial screening (3days)
[9] = HepG2.2.15, 144 h, read-out: % of inhibition (ETV =100%), confirmation (6days)

T1 sequence (P03146 1-149): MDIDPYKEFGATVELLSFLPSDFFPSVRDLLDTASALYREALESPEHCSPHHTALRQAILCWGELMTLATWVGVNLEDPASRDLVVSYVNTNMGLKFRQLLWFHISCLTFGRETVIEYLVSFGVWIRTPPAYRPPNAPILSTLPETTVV

COc1cc(C)c(/C=C/C(C)=C/C=C/C(C)=C/C(=O)O)c(C)c1C [Acitretin]
inhibition at 1 µM [1, 6]: 110% | inhibition at 1 µM [1, 7]: 1.8% | pKa value (acidic) [2]: 5.01 | pKa value (basic) [2]: -4.8 | Relative HBV pgRNA/precore RNA level (Folds), AVERAGE ([3]; Fig. 1c, 6 days): 0.9923 Folds

Cc1c(N(C)C)c(=O)n(-c2ccccc2)n1C [Amidopyrine]
% of inhibition (ETV =100%), initial screening (3days) ([1]; 1 μM, 3 days, ETV =100%): 111.6% | % of inhibition (ETV =100%), confirmation (6days) ([1]; 6 days, ETV =100%): 7.1% | Relative secreted HBV DNA level (Folds), AVERAGE ([1]; Fig. 1b, 6 days): 0.9368 Folds | Relative secreted HBV DNA level (Folds), individual samples ([1]; Fig. 1b, 6 days, Sample1-3): 0.9368 Folds and 0.9352 Folds and 0.9383 Folds | pKa value (basic) [2]: 3.47 | Relative HBV pgRNA/precore RNA level (Folds), AVERAGE ([3]; Fig. 1c, 6 days): 1.046 Folds | Relative HBV pgRNA/precore RNA level (Folds), individual samples ([3]; Fig. 1c, 6 days, Sample1-3): 1.129 Folds and 0.9386 Folds and 1.071 Folds

NCCc1ccc(O)c(O)c1 [Dopamine hydrochloride]
inhibition at 1 µM [1, 8]: 162% | inhibition at 1 µM [1, 9]: 67.9% | pKa value (acidic) [2]: 10.01 | pKa value (basic) [2]: 9.27 | Relative HBV pgRNA/precore RNA level (Folds), AVERAGE [3]: 1.103 Folds

Clc1ccc(COC(Cn2ccnc2)c2ccc(Cl)cc2Cl)cc1 (stereo not shown) [Econazole nitrate]
inhibition at 1 µM [1, 8]: 147% | inhibition at 1 µM [1, 9]: 27.5% | pKa value (basic) [2]: 6.77 | Relative HBV pgRNA/precore RNA level (Folds), AVERAGE [3]: 0.0453 Folds

O=c1[nH]c(=O)n(C2CCCO2)cc1F (stereo not shown) [Ftorafur]
inhibition at 1 µM [1, 6]: 131% | inhibition at 1 µM [1, 7]: 64.7% | pKa value (acidic) [2]: 8.08 | pKa value (basic) [2]: -4.3 | Relative HBV pgRNA/precore RNA level (Folds), AVERAGE ([3]; Fig. 1c, 6 days): 0.977 Folds

Clc1ccc(C(Cn2ccnc2)OCc2c(Cl)cccc2Cl)c(Cl)c1 (stereo not shown) [Isoconazole nitrate]
inhibition at 1 µM [1, 6]: 148% | inhibition at 1 µM [1, 7]: 41.4% | pKa value (basic) [2]: 6.77 | Relative HBV pgRNA/precore RNA level (Folds), AVERAGE ([3]; Fig. 1c, 6 days): 1.034 Folds

Clc1ccc(COC(Cn2ccnc2)c2ccc(Cl)cc2Cl)c(Cl)c1 (stereo not shown) [Miconazole]
inhibition at 1 µM [1, 8]: 132% | inhibition at 1 µM [1, 9]: -2.8% | pKa value (basic) [2]: 6.77 | Relative HBV pgRNA/precore RNA level (Folds), AVERAGE [3]: 0.964 Folds

OC(CNCC(O)C1CCc2cc(F)ccc2O1)C1CCc2cc(F)ccc2O1 (stereo not shown) [Nebivolol]
inhibition at 1 µM [1, 6]: 103% | inhibition at 1 µM [1, 7]: 78.4% | pKa value (acidic) [2]: 13.52 | pKa value (basic) [2]: 8.9 | Relative HBV pgRNA/precore RNA level (Folds), AVERAGE ([3]; Fig. 1c, 6 days): 0.9531 Folds

O=C1NC(=O)C(c2ccccc2)(c2ccccc2)N1 [Phenytoin sodium]
inhibition at 1 µM [1, 6]: 124% | inhibition at 1 µM [1, 7]: -2.4% | pKa value (acidic) [2]: 9.47 | Relative HBV pgRNA/precore RNA level (Folds), AVERAGE ([3]; Fig. 1c, 6 days): 0.7935 Folds

OC(CCN1CCCC1)(c1ccccc1)C1CCCCC1 (stereo not shown) [Procyclidine HCl]
inhibition at 1 µM [1, 6]: 112% | inhibition at 1 µM [1, 7]: 70.4% | pKa value (basic) [2]: 9.45 | Relative HBV pgRNA/precore RNA level (Folds), AVERAGE ([3]; Fig. 1c, 6 days): 1.056 Folds

O=N[O-].[Na+] [Sodium nitrite]
% of inhibition (ETV =100%), confirmation (6days) [1]: 83.1% | Relative secreted HBV DNA level (Folds), AVERAGE [1]: 0.2643 Folds | Relative secreted HBV DNA level (Folds), individual samples [1]: 0.2643 Folds and 0.2628 Folds and 0.2659 Folds | % of inhibition (ETV =100%), initial screening (3days) ([1]; 1 µM): 152.7% | Relative HBV pgRNA/precore RNA level (Folds), AVERAGE [3]: 0.04652 Folds | Relative HBV pgRNA/precore RNA level (Folds), individual samples [3]: 0.04803 Folds and 0.041 Folds and 0.05054 Folds

GLS-4
Relative intensity (Folds), in vitro core assembly, individual samples [4]: 1.0339 Folds and 1.019 Folds and 0.9819 Folds and 1.079 Folds and 1.058 Folds and 1.102 Folds and 0.3491 Folds and 0.342 Folds and 0.3462 Folds and 0.1267 Folds and 0.1171 Folds and 0.123 Folds and 0.01326 Folds and 0.01176 Folds and 0.01165 Folds and 0 Folds (6×) | Relative Core mRNA level(Folds), AVERAGE ([5]; 1.5day, 0.1 μM): 0.9973 Folds | Relative Core mRNA level(Folds), individual samples ([5]; 1.5day, 0.1 μM): 1.007 Folds and 1.003 Folds and 0.9824 Folds | Relative Core mRNA level(Folds), AVERAGE ([5]; 1.5day, 0.5 μM): 1.0017 Folds | Relative Core mRNA level(Folds), individual samples ([5]; 1.5day, 0.5 μM): 0.9742 Folds and 0.987 Folds and 1.044 Folds | Relative Core mRNA level(Folds), AVERAGE ([5]; 1.5day, 1 μM): 0.9997 Folds | Relative Core mRNA level(Folds), individual samples ([5]; 1.5day, 1 μM): 1.008 Folds and 0.9861 Folds and 1.005 Folds | Relative Core mRNA level(Folds), AVERAGE ([5]; 1.5day, 5 μM): 1.008 Folds | Relative Core mRNA level(Folds), individual samples ([5]; 1.5day, 5 μM): 1.002 Folds and 0.9963 Folds and 1.025 Folds | Relative Core mRNA level(Folds), AVERAGE ([5]; 1.5day, 10 μM): 0.9997 Folds | Relative Core mRNA level(Folds), individual samples ([5]; 1.5day, 10 μM): 0.9972 Folds and 0.9916 Folds and 1.01 Folds | Relative Core mRNA level(Folds), AVERAGE ([5]; 2.5day, 0.1 μM): 0.9923 Folds | Relative Core mRNA level(Folds), individual samples ([5]; 2.5day, 0.1 μM): 1.007 Folds and 0.9944 Folds and 0.976 Folds | Relative Core mRNA level(Folds), AVERAGE ([5]; 2.5day, 0.5 μM): 0.9898 Folds | Relative Core mRNA level(Folds), individual samples ([5]; 2.5day, 0.5 μM): 1 Folds and 0.9926 Folds and 0.9769 Folds | Relative Core mRNA level(Folds), AVERAGE ([5]; 2.5day, 1 μM): 0.9998 Folds | Relative Core mRNA level(Folds), individual samples ([5]; 2.5day, 1 μM): 1.0179 Folds and 1.005 Folds and 0.9769 Folds | Relative Core mRNA level(Folds), AVERAGE ([5]; 2.5day, 5 μM): 0.9873 Folds | Relative Core mRNA level(Folds), individual samples ([5]; 2.5day, 5 μM): 0.9861 Folds and 0.9889 Folds and 0.987 Folds | Relative Core mRNA level(Folds), AVERAGE ([5]; 2.5day, 10 μM): 1.003 Folds | Relative Core mRNA level(Folds), individual samples ([5]; 2.5day, 10 μM): 1.007 Folds and 1.001 Folds | Relative Core mRNA level(Folds), AVERAGE ([5]; 4.5day, 0.1 μM): 0.9929 Folds | Relative Core mRNA level(Folds), individual samples ([5]; 4.5day, 0.1 μM): 1.007 Folds and 0.9944 Folds and 0.9778 Folds | Relative Core mRNA level(Folds), AVERAGE ([5]; 4.5day, 0.5 μM): 0.9886 Folds | Relative Core mRNA level(Folds), individual samples ([5]; 4.5day, 0.5 μM): 1 Folds and 0.9889 Folds and 0.9769 Folds | Relative Core mRNA level(Folds), AVERAGE ([5]; 4.5day, 1 μM): 0.9986 Folds | Relative Core mRNA level(Folds), individual samples ([5]; 4.5day, 1 μM): 1.0179 Folds and 1.001 Folds and 0.9769 Folds | Relative Core mRNA level(Folds), AVERAGE ([5]; 4.5day, 5 μM): 0.9904 Folds | Relative Core mRNA level(Folds), individual samples ([5]; 4.5day, 5 μM): 0.9861 Folds and 0.9981 Folds and 0.987 Folds | Relative Core mRNA level(Folds), AVERAGE ([5]; 4.5day, 10 μM): 0.9982 Folds | Relative Core mRNA level(Folds), individual samples ([5]; 4.5day, 10 μM): 1.007 Folds and 0.9916 Folds and 0.9963 Folds | total core protein ([5]; treatment time increased): decreased

L-Adrenaline
% of inhibition (ETV =100%), initial screening (3days) ([1]; 1 μM, 3 days, ETV =100%): 152.6% | % of inhibition (ETV =100%), confirmation (6days) ([1]; 6 days, ETV =100%): 1.5% | Relative secreted HBV DNA level (Folds), AVERAGE ([1]; Fig. 1b, 6 days): 0.9865 Folds | Relative secreted HBV DNA level (Folds), individual samples ([1]; Fig. 1b, 6 days, Sample1-3): 0.9865 Folds and 0.985 Folds and 0.9881 Folds | Relative HBV pgRNA/precore RNA level (Folds), AVERAGE ([3]; Fig. 1c, 6 days): 0.9192 Folds | Relative HBV pgRNA/precore RNA level (Folds), individual samples ([3]; Fig. 1c, 6 days, Sample1-3): 1.032 Folds and 0.7969 Folds and 0.9286 Folds
